The source of these data is ChEMBL document CHEMBL3507680, “University of Dundee, Gates Library screen for HepG2 cell viability”.

This data set in a line: Human HepG2 cell viability assay in 384 well format. It counts as toxicity, cell-based. Details: dose 125 nL, time 70.5 hour; concentration not given beside the values. The conditions noted are these: HepG2 cells, read-out: Inhibition.
For `CCc1nnc(CN(C)c2nccc(CCC(F)(F)F)n2)o1`, the cytotoxicity at 70.5 h was -9.32%.
For `O=S(=O)(C1CC1)N1CC[C@@H](OCC2CC2)[C@@H]1Cc1ccncc1`, the cytotoxicity at 70.5 h is -4.77%.
The value for `CCCC(=O)NCC(Cc1cccc(F)c1)N1CCCC1=O` (stereo not given) was -3.15%; that for `CC(O)CN1CCN(C(=O)c2ccc(Br)o2)CC1` (stereo not given) was -19.8%.
With `CC(C)c1cc(C(F)(F)F)n2nc(C3CCN(S(C)(=O)=O)C3)cc2n1` (stereo not given) the figure was -1.05%; with `CCS(=O)(=O)N1CCC2(CC1)CC1(CCN(CCOC)CC1)C(=O)N2C`, -6.01%; with `Cc1cc(C(=O)N2CCC3(CCNCC3)CC2)c2cccc(C)c2n1`, 43.8%.
On to `NC(=O)COc1cccc(C(=O)Nc2cnc3n2CCCC3)c1`, for which the cytotoxicity at 70.5 h is -5.66%.
As for `Fc1ccc2[nH]c(C3CCCN3CCCn3cccn3)nc2c1` (stereo not given), the cytotoxicity at 70.5 h is -6.03%.
Turning to `COc1ccccc1C1(CNCc2ccc([S+](C)[O-])cc2)CC1` (stereo not given), the cytotoxicity at 70.5 h was -6.54%.
In the case of `Cc1cccc(NC(=O)N2CCC(CO)(Nc3ccccc3)CC2)c1`, the cytotoxicity at 70.5 h was -5.03%.
The value for `Cn1c(CO)nnc1SCc1c(F)cccc1Br` was -5.69%; that for `Clc1ccc2[nH]c3c(c2c1)CCCC3c1nn[nH]n1` (stereo not given) was -6.09%; that for `Cc1nc(C)n(Cc2cccc(NC(=O)NC(C)(CO)C3CC3)c2)n1` (stereo not given) was -6.87%.
Regarding `N#CCCN(C(=O)CN1CCCC1Cc1ccccc1)c1ccccc1` (stereo not given), the cytotoxicity at 70.5 h is 0.569%.
For `COCCN1CCC2(CC1)CN(C(=O)c1cccs1)CCO2`, the cytotoxicity at 70.5 h amounted to 33.9%.
In the case of `Cc1nc2c(c(NCCCN3CCOCC3)n1)CCN(C)C2`, the cytotoxicity at 70.5 h came out at 15.4%.
For `COC(=O)c1cccc(S(=O)(=O)Nc2ccc(Cl)c(C(N)=O)c2)c1`, the cytotoxicity at 70.5 h was -12.3%.
The value for `O=C(Nc1ccc(Cl)cc1)c1nn(C2CCS(=O)(=O)C2)c2c1CCCC2` (stereo not given) was -19.1%; that for `Cn1c(CN2CCCCCC2)cc(=O)c(O)c1CN1CCCC1` was 51.6%.
With `CC(=O)N1CCCN(C(=O)NCCc2ccc(Cl)s2)CC1`, the cytotoxicity at 70.5 h was -1.97%.
For `O=C(c1cccc(CNS(=O)(=O)c2ccc(F)cc2)c1)N1CCCC1`, the cytotoxicity at 70.5 h was -9.64%.
The value for `CN(c1ncccc1CNC(=O)c1csnn1)C1CCCCC1` was 26.5%.
Regarding `Cc1cccc(CN2C[C@H]3CCC[C@@]3(COCc3csc(C)n3)C2)n1`, the cytotoxicity at 70.5 h was -6.32%.
The value for `CC[S+]([O-])CCc1nc(CC(C)C)nn1-c1ccc2c(c1)OCCO2` (stereo not given) was 5.5%; that for `COc1ccccc1C(=O)N1CC2(COC(C)(C)OC2)C1` was -0.0905%.
As to `CC(C)CN1CCC2(C=C(C(=O)N(C)C)c3ccccc32)CC1`, the cytotoxicity at 70.5 h is -2.19%.
`COc1cc(NC(=O)NCC2CCCO2)cc(OC)c1OC` (stereo not given): the cytotoxicity at 70.5 h was -5.38%.
On to `CC(C)Oc1ccc(CNC(=O)CC(F)(F)F)cc1F`, for which the cytotoxicity at 70.5 h was -18%.
With `CC(C)c1cc(C(=O)N2CCCN(CCCc3ccccc3)CC2)[nH]n1` the figure was -8.74%; with `O=C(O)CCCC(=O)N1CCC(c2noc3cc(F)ccc23)CC1`, -13.8%; with `COc1cccc(C2CCCN2Cc2nc3c(cnn3C)c(=O)[nH]2)c1` (stereo not given), -1.55%.
Take `CNc1cc(C(=O)N2CCCCC2CCn2ccnc2C)ccn1` (stereo not given): the cytotoxicity at 70.5 h is -2.8%.
With `O=C(c1cccc(S(=O)(=O)NCCc2ccccn2)c1)N1CCOCC1` the figure was -2.52%; with `COc1ccc(-c2cc(C3CCOC3)c(C#N)c(N)n2)cn1` (stereo not given), 18.9%.
With `CC(=O)N1CCc2c(nc(N(C)C)nc2NC(C)Cc2cccs2)C1` (stereo not given) the figure was -6.58%.
With `Cc1noc(C)c1C(=O)N1CCOC2(COCCN(C(C)C)C2)C1` (stereo not given) the figure was -1.02%; with `CCOCC1CC2(CCN(C(=O)c3ncccn3)CC2)CO1` (stereo not given), -10.5%.
`O=C(c1ccnnc1)N1CCN2C[C@H](Oc3cccc(F)c3)C[C@H]2C1`: the cytotoxicity at 70.5 h is -5.78%.
Consider `CC(C)N[C@@H]1CC[C@@H]1NC(=O)c1ccccc1OC(F)(F)C(F)F`, for which the cytotoxicity at 70.5 h amounted to 14.2%.
The value for `Cn1c(CCCNc2nccnc2C#N)nc2ccccc21` was 1.96%; that for `Cc1nc(C)c(Cn2ccnc2-c2cc(CN(C)C)cs2)s1` was 2.87%.
The value for `CCc1cc(NC2CCOCC2)n2nc(C)c(C)c2n1` was -10.6%; that for `Cc1cnc(CN(C)Cc2cc3c(cc2OC(F)F)OCO3)o1` was 0.766%.
The value for `Cc1cccc(CN2C(=O)CCC23CCN(Cc2cccn2C)CC3)n1` was -3.65%; that for `CC(C)Oc1ccccc1-c1cc(CN)ccc1F` was 5.05%; that for `CC(C)c1nc(CN2CCCC2Cn2cncn2)no1` (stereo not given) was 5.22%.
On to `CN(Cc1cccnc1)CC1CN(C(=O)C2CC2)Cc2nccn2C1` (stereo not given), for which the cytotoxicity at 70.5 h was -7.48%.
The value for `Cc1cc(C)n(C2CN(CCC(=O)NCCc3ccccc3)C2)n1` was -1.03%; that for `CNC(=O)C1CCN(CC(=O)Nc2cc(C(C)C)no2)CC1` was -1.42%.
The value for `CN(C(=O)CCN1CCCC1=O)c1cc(C#N)c2ccccc2n1` was 4.42%.
As to `O=C(O)c1cc(S(=O)(=O)Nc2cc(F)cc(F)c2)cc2c1OCCO2`, the cytotoxicity at 70.5 h was -4.5%.
On to `CCCc1nnc2sc(C3CCN(CC)CC3)nn12`, for which the cytotoxicity at 70.5 h was -13.4%.
With `CC(C)N1CCC2(CCN(C(=O)c3cccnc3)CC2)C1` the figure was -16.3%.
The value for `Cc1cc(NC(C)C(=O)NCC(F)(F)F)nc(-c2ccncc2)n1` (stereo not given) was -16.5%.
In the case of `CCOc1ccc(C(=O)N2CCCC(n3ccnc3C)C2)cc1OC` (stereo not given), the cytotoxicity at 70.5 h was -7.46%.
With `CNC(=O)c1sccc1S(=O)(=O)Nc1ccc(C)cc1`, the cytotoxicity at 70.5 h was -1.86%.
The value for `CS(=O)(=O)N1CC2(CCN(Cc3ccccn3)C2)Cc2ccccc21` (stereo not given) was -8%.
The value for `CCc1nnc2n1CCN(Cc1csc(Cc3ccccc3)n1)C2` was 15.5%; that for `CCN(CC)Cc1nc2c(o1)CN(C(=O)c1ccc3ncccc3c1)C2` was -4.56%; that for `O=C(O)c1sccc1Oc1ccc(NC(=O)C2CC2)cc1` was -0.448%.
On to `COc1cccc(C(=O)Oc2cc(=O)n3cccc(C)c3n2)c1`, for which the cytotoxicity at 70.5 h was -24.8%.
The value for `COc1ccc(C(C)C)cc1C1CC(=O)NCc2nc(N(C)C)sc21` (stereo not given) was 13.4%.
`CCC(N)C(=O)N1CCC(OCc2ccc(Cl)c(Cl)c2)CC1` (stereo not given): the cytotoxicity at 70.5 h is 8.03%.
With `COCCc1noc(CN2CCOC(Cn3cc(C)cn3)C2)n1` (stereo not given) the figure was 0.177%; with `COC[C@H]1CCC[C@]12CN(CCc1ccccc1)CCO2`, -15.8%.
The value for `CCOc1ccc2[nH]c3c(N(C)CC4OCCO4)ncnc3c2c1` was -21.1%; that for `CC(C)(C)C(=O)N1CCCC1c1ccc(C(=O)N2CCOCC2)s1` (stereo not given) was 16.2%; that for `Cc1ccc(C(=O)N2CCCC(N(C)C(=O)OC(C)(C)C)C2)o1` (stereo not given) was 2.04%.
The value for `COc1cccc(F)c1-c1c[nH]c(C)n1` was 11.7%.
As to `CCc1nc(C#N)c(N2CCC(c3nc(-c4ccccc4)no3)CC2)o1`, the cytotoxicity at 70.5 h is 0.267%.
Turning to `COc1ccccc1C(=O)N1CC(Cc2nccc3ccn(C)c23)C1`, the cytotoxicity at 70.5 h is -0.41%.
`Cc1ccc(N2CCC3(CCN(C(=O)c4ccsc4)C3)CC2)nn1`: the cytotoxicity at 70.5 h is -12.9%.
With `CN(C)S(=O)(=O)N1CCC(c2ccncc2)CC1` the figure was -10.2%.
With `Cc1ccc(N2CCCC(NCC(=O)NC(C3CC3)C3CC3)C2)nn1` (stereo not given) the figure was -8.53%; with `COc1cccc(-c2nc(CNCCc3cccnc3)cs2)c1`, -19.3%; with `NC(=O)COCCNC(=O)Nc1sc2ccccc2c1Cl`, -9.32%.
With `CNS(=O)(=O)CC(=O)NCc1cc2c(s1)CCCCC2` the figure was -1.17%; with `Cc1occc1C(=O)N1CCC2(CCCN(Cc3nccs3)C2)C1` (stereo not given), 1.62%; with `Cc1cnc(C(=O)N2CCCN(Cc3csc(C)n3)CC2)cn1`, -5.72%.
With `CCCc1nnc(N2CCC3(CCC(=O)N(C)C3)CC2)o1`, the cytotoxicity at 70.5 h is 4.55%.
With `CCOCC(=O)NCC1(NC(C)c2ccccc2)CCOCC1` (stereo not given) the figure was -8.52%; with `c1ccc(-c2nc(CNCCn3cccn3)cs2)cc1`, -4.17%; with `Cc1cccc(CN2C[C@@H](NC(=O)C3CCC3)[C@H]3COC[C@H]32)n1`, -5.38%.
With `CCc1c(C)noc1-c1cnc(NC2CC2)nc1-c1cnc(C)cn1` the figure was -7.43%; with `Nc1nnc(CCCn2nnc(-c3ccccc3F)n2)s1`, -15.5%.
Regarding `CC(C)(C)C(=O)NC[C@H]1Cn2c(-c3ccccc3)cnc2CO1`, the cytotoxicity at 70.5 h was -9.72%.
`CCn1cc(Cn2cc(-c3cccc(C(C)N(C)C)c3)nn2)cn1` (stereo not given): the cytotoxicity at 70.5 h is -6.09%.
`Nc1ncc(-c2ccc(NC(=O)[C@@H]3CCCCN3)cc2)cn1`: the cytotoxicity at 70.5 h was 2.01%.
Consider `Cc1ccccc1CC(=O)N1CCN(C2CCOC2=O)CC1` (stereo not given), for which the cytotoxicity at 70.5 h is -5.25%.
With `O=C1NCC2(CCCN(Cc3ccc(Cl)s3)C2)Oc2ccccc21` (stereo not given) the figure was -12.5%; with `Cc1ccccc1C(C)NC(=O)CN1CCN(Cc2ccc(Cl)s2)CC1` (stereo not given), 17%; with `COC1(CNC(=O)NCc2ccccc2)CCSC1` (stereo not given), -9.9%.
As to `CC(NCc1ccc(F)cc1)c1ccc(OCC(=O)NC2CC2)cc1` (stereo not given), the cytotoxicity at 70.5 h stood at 25.6%.
As to `CCc1nc(C)c(C(=O)N[C@@H]2c3ccccc3C[C@@H]2O)o1`, the cytotoxicity at 70.5 h was 16%.
In the case of `Cc1nn2c(nc1=O)-c1ccccc1NC2C(=O)O` (stereo not given), the cytotoxicity at 70.5 h is -9.44%.
With `CCn1ccnc1CN1CCNCC1C` (stereo not given) the figure was -5.16%; with `Cc1cnccc1NCCNC(=O)[C@H]1CNC[C@H](C(=O)N2CCCC2)C1`, -4.18%.
`O=C(Cn1cccn1)N1CCc2[nH]nc(-c3ccc4c(c3)OCO4)c2C1`: the cytotoxicity at 70.5 h is -7.87%.
For `c1cnn(CC2CN(c3ncnc4c3CCC4)CCO2)c1` (stereo not given), the cytotoxicity at 70.5 h is -9.89%.
